Laboratory results published in patent publication US12172971B1, “N′-(2-naphthoyloxy)-2-(benzo[d]oxazol-2-yl)acetimidamide as an antimicrobial compound” (priority 2023, dated 2024).

Test system: Bacillus cereus, Staphylococcus aureus, Pseudomonas aeruginosa, Escherichia coli, Aspergillus flavus, Chrysosporium keratinophilum
Assay: agar plate disc-diffusion antimicrobial test
Type: cell-based
Settings: discs wetted with 10 μL of 10 mg/mL in DMSO; 37° C., 48 h, 72 h for fungi; gram positive and gram-negative bacteria and fungi
Experimental: The agar plate disc-diffusion method was applied. Sterilized filter papers (6 mm in diameter) were wetted with 10 μL of a solution of N′-(2-naphthoyloxy)-2-(benzo[d]oxazol-2-yl)acetimidamide (3) to be tested, containing 10 mg/mL in DMSO, and the discs were allowed to air dry. The discs were then placed onto the surface of agar plates (nutrient agar for bacteria and Sabouraud's dextrose agar for fungi) seeded with the test organism. Each plate contained 15 mL of the agar medium, previously seeded with 0.2 mL of the broth culture of each organism pregrown for 18 hours. The plates were incubated at 37° C. for 48 h, and 72 h for fungi. The inhibition zones were measured in mm. Discs impregnated with DMSO were used as a control, and its inhibition zone was subtracted from the tested compound actual inhibition zone. […] The antibacterial activity was screened against gram positive bacteria namely Bacillus cereus and Staphylococcus aureus and gram-negative bacterial strains namely Pseudomonas aeruginosa and Escherichia coli, while the antifungal activity was screened against Aspergillus flavus and Chrysosporium keratinophilum.

N/C(Cc1nc2ccccc2o1)=N\OC(=O)c1ccc2ccccc2c1 [compound 3, N′-(2-naphthoyloxy)-2-(benzo[d]oxazol-2-yl)acetimidamide]
antimicrobial activity (disc-diffusion inhibition zones): high antimicrobial activities
